pIC50: −log10 of the molar value.

In this assay the target is Signal transducer and activator of transcription 3 (Homo sapiens, UniProt P40763). The experiment in a line: Inhibition of STAT3 in IL-6-stimulated human HepG2 cells treated for 1 hr prior to IL-6 challenge measured after 5.5 hrs by luciferase reporter gene assay.
Signal transducer and activator of transcription 3, sequence (P40763 whole entry): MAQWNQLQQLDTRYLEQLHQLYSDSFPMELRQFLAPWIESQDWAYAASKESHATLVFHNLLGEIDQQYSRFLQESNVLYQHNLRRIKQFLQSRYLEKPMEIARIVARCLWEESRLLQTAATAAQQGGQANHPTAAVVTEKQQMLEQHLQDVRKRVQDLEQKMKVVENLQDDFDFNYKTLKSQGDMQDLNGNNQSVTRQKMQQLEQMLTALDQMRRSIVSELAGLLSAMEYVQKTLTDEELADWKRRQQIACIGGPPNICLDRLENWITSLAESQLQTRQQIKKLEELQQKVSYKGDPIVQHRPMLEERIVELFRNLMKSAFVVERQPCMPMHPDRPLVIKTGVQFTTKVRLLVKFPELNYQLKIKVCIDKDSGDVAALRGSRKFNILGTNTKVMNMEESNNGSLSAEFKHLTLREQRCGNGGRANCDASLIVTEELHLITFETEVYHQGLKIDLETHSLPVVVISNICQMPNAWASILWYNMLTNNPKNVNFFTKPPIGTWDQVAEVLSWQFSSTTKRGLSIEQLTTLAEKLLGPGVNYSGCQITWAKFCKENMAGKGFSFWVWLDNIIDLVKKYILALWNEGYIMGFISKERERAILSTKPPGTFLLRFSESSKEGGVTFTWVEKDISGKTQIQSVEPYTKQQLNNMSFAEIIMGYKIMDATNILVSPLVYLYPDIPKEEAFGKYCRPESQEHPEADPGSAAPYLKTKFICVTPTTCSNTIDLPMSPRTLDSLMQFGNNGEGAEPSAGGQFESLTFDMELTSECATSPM

Compound `CCC(Sc1nc2ccc(NC(=O)c3ccc(OC)cc3)cc2s1)C(=O)Nc1ccc(Br)cc1` (stereo unspecified) gave a pIC50 of 5.45.

Source of the values: BindingDB's records for doi:10.1016/j.ejmech.2013.01.009 (Fudan University, 2013).
